Literature values as cited in patent US20070173464A1, “Oral ribavirin pharmaceutical compositions” (Flamel Technologies, priority 2005, published 2007).
Converted amounts (≈) assume the structure as drawn.

Assays:
Hepatitis C Virus (HC) = details: up to 1200 mg per day, typically 48 weeks, in conjunction with interferon or long acting pegylated interferon; genotype I patients

For `NC(=O)c1ncn([C@@H]2O[C@H](CO)[C@@H](O)[C@H]2O)n1` [Ribavirin, 1-beta-D-ribofuranosyl-1,2,4-thiazole-3-carboxamide], the water solubility is given as 140 mg/mL (≈ 573 mM) and the sustained virologic response (Hepatitis C Virus (HC)) is given as 30 to 55 % of genotype I patients.
